Experimental data taken from US11053204B2, “Pyrimidinyloxy benzene derivatives as herbicides” (FMC Corporation, priority 2015, dated 2021).

What was measured:
Experiment in all cases: Test C postemergence, plant response rating
Type in all cases: in vivo
[1] = system: johnsongrass (Sorghum halepense); details: for Johnsongrass plant response rating: scale 0 to 100 (0 no effect, 100 complete control)
Outline: (§1)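 Greenhouse plants rated visually against untreated controls 13–15 d after treatment, scale 0 = no effect to 100 = complete control. Postemergence sprays went onto potted plants 2–18 cm tall (1–4 leaves); preemergence sprays onto soil freshly sown in loam–sand or silt loam, chemicals formulated in non-phytotoxic solvent with surfactant.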

[2] = system: nightshade (eastern black nightshade, Solanum ptycanthum); details: for Nightshade plant response rating: scale 0 to 100 (0 no effect, 100 complete control)
Outline: as §1

[3] = system: field poppy (Papaver rhoeas); details: for Field Poppy plant response rating: scale 0 to 100 (0 no effect, 100 complete control)
Outline: as §1

[4] = system: Canada thistle (Cirsium arvense); details: for Canada Thistle plant response rating: scale 0 to 100 (0 no effect, 100 complete control)
Outline: as §1

[5] = system: pigweed, palmer (palmer pigweed, Amaranthus palmeri); details: for Pigweed, Palmer plant response rating: scale 0 to 100 (0 no effect, 100 complete control)
Outline: as §1

[6] = system: geranium, cutleaf (cutleaf geranium, Geranium dissectum); details: for Geranium, Cutleaf plant response rating: scale 0 to 100 (0 no effect, 100 complete control)
Outline: as §1

[7] = system: wild poinsettia (Euphorbia heterophylla); details: for Poinsettia, Wild plant response rating: scale 0 to 100 (0 no effect, 100 complete control)
Outline: as §1

[8] = system: surinam grass (Brachiaria decumbens); details: for Surinam Grass plant response rating: 125 g ai/ha, scale 0 to 100 (0 no effect, 100 complete control)
Outline: as §1

[9] = system: buckwheat, wild (wild buckwheat, Polygonum convolvulus); details: for Buckwheat, Wild plant response rating: scale 0 to 100 (0 no effect, 100 complete control)
Outline: as §1

[10] = system: field violet (Viola arvensis); details: for Field Violet plant response rating: scale 0 to 100 (0 no effect, 100 complete control)
Outline: as §1

[11] = system: speedwell (bird's-eye speedwell, Veronica persica); details: for Speedwell plant response rating: scale 0 to 100 (0 no effect, 100 complete control)
Outline: as §1

[12] = system: windgrass (Apera spica-venti); details: for Windgrass plant response rating: 125 g ai/ha, scale 0 to 100 (0 no effect, 100 complete control)
Outline: as §1

[13] = system: wild mustard (Sinapis arvensis); details: for Mustard, Wild plant response rating: scale 0 to 100 (0 no effect, 100 complete control)
Outline: as §1

O=C(CCCC(F)(F)F)c1c(Oc2ncc(Cl)cn2)cccc1C(F)(F)F [Compound 125]
Plant response rating, Johnsongrass ([1]; 16 g ai/ha, scale of 0 to 100): 5 | Plant response rating, Johnsongrass ([1]; 31 g ai/ha, scale 0 to 100): 5 | Johnsongrass plant response rating ([1]; 62 g ai/ha): 10 | Johnsongrass plant response rating ([1]; 125 g ai/ha): 25 | Plant response rating, Nightshade ([2]; 16 g ai/ha, scale of 0 to 100): 50 | Plant response rating, Nightshade ([2]; 31 g ai/ha, scale 0 to 100): 75 | Nightshade plant response rating ([2]; 62 g ai/ha): 85 | Nightshade plant response rating ([2]; 125 g ai/ha): 90 | Plant response rating, Field Poppy ([3]; 16 g ai/ha, scale of 0 to 100): 90 | Plant response rating, Field Poppy ([3]; 31 g ai/ha, scale 0 to 100): 95 | Field Poppy plant response rating ([3]; 62 g ai/ha): 100 | Field Poppy plant response rating ([3]; 125 g ai/ha): 100 | Plant response rating, Canada Thistle ([4]; 16 g ai/ha, scale of 0 to 100): 80 | Plant response rating, Canada Thistle ([4]; 31 g ai/ha, scale 0 to 100): 85 | Canada Thistle plant response rating ([4]; 62 g ai/ha): 90 | Canada Thistle plant response rating ([4]; 125 g ai/ha): 90 | Plant response rating, Pigweed, Palmer ([5]; 16 g ai/ha, scale of 0 to 100): 40 | Plant response rating, Pigweed, Palmer ([5]; 31 g ai/ha, scale 0 to 100): 85 | Pigweed, Palmer plant response rating ([5]; 62 g ai/ha): 80 | Pigweed, Palmer plant response rating ([5]; 125 g ai/ha): 85 | Plant response rating, Geranium, Cutleaf ([6]; 16 g ai/ha, scale of 0 to 100): 25 | Plant response rating, Geranium, Cutleaf ([6]; 31 g ai/ha, scale 0 to 100): 30 | Geranium, Cutleaf plant response rating ([6]; 62 g ai/ha): 55 | Geranium, Cutleaf plant response rating ([6]; 125 g ai/ha): 55 | Plant response rating, Poinsettia, Wild ([7]; 16 g ai/ha, scale of 0 to 100): 65 | Plant response rating, Poinsettia, Wild ([7]; 31 g ai/ha, scale 0 to 100): 65 | Poinsettia, Wild plant response rating ([7]; 62 g ai/ha): 75 | Poinsettia, Wild plant response rating ([7]; 125 g ai/ha): 85 | Plant response rating, Surinam Grass ([8]; 16 g ai/ha, scale of 0 to 100): 5 | Plant response rating, Surinam Grass ([8]; 31 g ai/ha, scale 0 to 100): 10 | Surinam Grass plant response rating [8]: 20 | Plant response rating, Buckwheat, Wild ([9]; 16 g ai/ha, scale of 0 to 100): 70 | Plant response rating, Buckwheat, Wild ([9]; 31 g ai/ha, scale 0 to 100): 65 | Buckwheat, Wild plant response rating ([9]; 62 g ai/ha): 75 | Buckwheat, Wild plant response rating ([9]; 125 g ai/ha): 98 | Plant response rating, Field Violet ([10]; 16 g ai/ha, scale of 0 to 100): 90 | Plant response rating, Field Violet ([10]; 31 g ai/ha, scale 0 to 100): 98 | Field Violet plant response rating ([10]; 62 g ai/ha): 98 | Field Violet plant response rating ([10]; 125 g ai/ha): 98 | Plant response rating, Speedwell ([11]; 16 g ai/ha, scale of 0 to 100): 55 | Plant response rating, Speedwell ([11]; 31 g ai/ha, scale 0 to 100): 70 | Speedwell plant response rating ([11]; 62 g ai/ha): 98 | Speedwell plant response rating ([11]; 125 g ai/ha): 98 | Plant response rating, Windgrass ([12]; 16 g ai/ha, scale of 0 to 100): 10 | Plant response rating, Windgrass ([12]; 31 g ai/ha, scale 0 to 100): 15 | Windgrass plant response rating [12]: 35 | Plant response rating, Mustard, Wild ([13]; 16 g ai/ha, scale of 0 to 100): 90 | Plant response rating, Mustard, Wild ([13]; 31 g ai/ha, scale 0 to 100): 95 | Mustard, Wild plant response rating ([13]; 62 g ai/ha): 98 | Mustard, Wild plant response rating ([13]; 125 g ai/ha): 100

CCCCC(=O)c1c(Oc2ncc(Cl)cn2)cccc1C(F)(F)F [Compound 130]
Plant response rating, Johnsongrass ([1]; 16 g ai/ha, scale of 0 to 100): 5 | Plant response rating, Johnsongrass ([1]; 31 g ai/ha, scale 0 to 100): 5 | Johnsongrass plant response rating ([1]; 62 g ai/ha): 10 | Johnsongrass plant response rating ([1]; 125 g ai/ha): 15 | Plant response rating, Nightshade ([2]; 16 g ai/ha, scale of 0 to 100): 75 | Plant response rating, Nightshade ([2]; 31 g ai/ha, scale 0 to 100): 80 | Nightshade plant response rating ([2]; 62 g ai/ha): 85 | Nightshade plant response rating ([2]; 125 g ai/ha): 90 | Plant response rating, Field Poppy ([3]; 16 g ai/ha, scale of 0 to 100): 100 | Plant response rating, Field Poppy ([3]; 31 g ai/ha, scale 0 to 100): 100 | Field Poppy plant response rating ([3]; 62 g ai/ha): 100 | Field Poppy plant response rating ([3]; 125 g ai/ha): 100 | Plant response rating, Canada Thistle ([4]; 16 g ai/ha, scale of 0 to 100): 75 | Plant response rating, Canada Thistle ([4]; 31 g ai/ha, scale 0 to 100): 75 | Canada Thistle plant response rating ([4]; 62 g ai/ha): 98 | Canada Thistle plant response rating ([4]; 125 g ai/ha): 98 | Plant response rating, Pigweed, Palmer ([5]; 16 g ai/ha, scale of 0 to 100): 35 | Plant response rating, Pigweed, Palmer ([5]; 31 g ai/ha, scale 0 to 100): 65 | Pigweed, Palmer plant response rating ([5]; 62 g ai/ha): 45 | Pigweed, Palmer plant response rating ([5]; 125 g ai/ha): 65 | Plant response rating, Geranium, Cutleaf ([6]; 16 g ai/ha, scale of 0 to 100): 25 | Plant response rating, Geranium, Cutleaf ([6]; 31 g ai/ha, scale 0 to 100): 35 | Geranium, Cutleaf plant response rating ([6]; 62 g ai/ha): 45 | Geranium, Cutleaf plant response rating ([6]; 125 g ai/ha): 60 | Plant response rating, Poinsettia, Wild ([7]; 16 g ai/ha, scale of 0 to 100): 55 | Plant response rating, Poinsettia, Wild ([7]; 31 g ai/ha, scale 0 to 100): 70 | Poinsettia, Wild plant response rating ([7]; 62 g ai/ha): 60 | Poinsettia, Wild plant response rating ([7]; 125 g ai/ha): 75 | Plant response rating, Surinam Grass ([8]; 16 g ai/ha, scale of 0 to 100): 10 | Plant response rating, Surinam Grass ([8]; 31 g ai/ha, scale 0 to 100): 10 | Surinam Grass plant response rating [8]: 20 | Plant response rating, Buckwheat, Wild ([9]; 16 g ai/ha, scale of 0 to 100): 35 | Plant response rating, Buckwheat, Wild ([9]; 31 g ai/ha, scale 0 to 100): 90 | Buckwheat, Wild plant response rating ([9]; 62 g ai/ha): 75 | Buckwheat, Wild plant response rating ([9]; 125 g ai/ha): 80 | Plant response rating, Field Violet ([10]; 16 g ai/ha, scale of 0 to 100): 80 | Plant response rating, Field Violet ([10]; 31 g ai/ha, scale 0 to 100): 85 | Field Violet plant response rating ([10]; 62 g ai/ha): 95 | Field Violet plant response rating ([10]; 125 g ai/ha): 100 | Plant response rating, Speedwell ([11]; 16 g ai/ha, scale of 0 to 100): 80 | Plant response rating, Speedwell ([11]; 31 g ai/ha, scale 0 to 100): 85 | Speedwell plant response rating ([11]; 62 g ai/ha): 98 | Speedwell plant response rating ([11]; 125 g ai/ha): 98 | Plant response rating, Windgrass ([12]; 16 g ai/ha, scale of 0 to 100): 10 | Plant response rating, Windgrass ([12]; 31 g ai/ha, scale 0 to 100): 15 | Windgrass plant response rating [12]: 35 | Plant response rating, Mustard, Wild ([13]; 16 g ai/ha, scale of 0 to 100): 98 | Plant response rating, Mustard, Wild ([13]; 31 g ai/ha, scale 0 to 100): 90 | Mustard, Wild plant response rating ([13]; 62 g ai/ha): 100 | Mustard, Wild plant response rating ([13]; 125 g ai/ha): 100
